What all share (type): functional
The subject of assay [1] is Staphylococcus aureus. The assay is described as follows: Potentiation of streptomycin antimicrobial activity against methicillin-resistant Staphylococcus aureus at 10 ug/ml after 20 hrs by liquid microdilution method.
In assay [2] the test system is Staphylococcus aureus. Nature of the assay: Antimicrobial activity against methicillin-resistant Staphylococcus aureus after 20 hrs by liquid microdilution method.
Assay [3] relates to Staphylococcus aureus. The assay is described as follows: Potentiation of tetracycline antimicrobial activity against methicillin-resistant Staphylococcus aureus at 10 ug/ml after 20 hrs by liquid microdilution method. (In general: Dilution methods test growth across graded concentrations, often in twofold steps.)

The results in this text go back to ChEMBL document CHEMBL2321844, “Discovery of nosokophic acid, a predicted intermediate of moenomycins, from nosokomycin-producing Streptomyces sp. K04-0144” (2013).

≈ marks a conversion by molar mass, not a printed value. Calls of active or inactive are those of the source. No cut-off for these calls is given here.

Regarding `CN[C@@H]1[C@H](O[C@H]2[C@H](O[C@H]3[C@H](O)[C@@H](O)[C@H](N=C(N)N)[C@@H](O)[C@@H]3N=C(N)N)O[C@@H](C)[C@]2(O)C=O)O[C@@H](CO)[C@H](O)[C@H]1O` [STREPTOMYCIN], in assay [1], the “fractional inhibitory concentration index (FICI)” value stood at 1. The MIC – broadly, the lowest concentration found to suppress growth – in assay [2] worked out at 2 µg/mL (≈ 3.44 µM). Consider `C[C@@H](O)[C@H]1C(=O)N2C(C(=O)O)=C(SCCNC=N)C[C@H]12` [IMIPENEM ANHYDROUS], for which the MIC in assay [2] came out at 16 µg/mL (≈ 53.4 µM). Consider `CN[C@H](CC(C)C)C(=O)N[C@H]1C(=O)N[C@@H](CC(N)=O)C(=O)N[C@H]2C(=O)N[C@H]3C(=O)N[C@H](C(=O)N[C@H](C(=O)O)c4cc(O)cc(O)c4-c4cc3ccc4O)[C@H](O)c3ccc(c(Cl)c3)Oc3cc2cc(c3O[C@@H]2O[C@H](CO)[C@@H](O)[C@H](O)[C@H]2O[C@H]2C[C@](C)(N)[C@H](O)[C@H](C)O2)Oc2ccc(cc2Cl)[C@H]1O` [VANCOMYCIN], for which, in assay [2], the lowest concentration to inhibit growth (MIC) was 0.5 µg/mL (≈ 0.345 µM). As for `CN(C)[C@@H]1C(O)=C(C(N)=O)C(=O)[C@@]2(O)C(O)=C3C(=O)c4c(O)cccc4[C@@](C)(O)[C@H]3C[C@@H]12` [TETRACYCLINE], the “fractional inhibitory concentration index (FICI)” value in assay [3] worked out at 1. In assay [2], the MIC was 32 µg/mL (≈ 72 µM).

Turning to `CC(C)=CCC/C(C)=C/CC/C(C)=C\COC(COP(=O)(O)O[C@H]1O[C@H](C(N)=O)[C@H](O)[C@H](O)[C@H]1O)C(=O)O` (some centres not stated), the result in assay [2] was inactive.
